Test results taken from patent US4479943A, “3-Demethoxyistamycin B, the 2"-N-formimidoyl derivative thereof and pharmaceutical composition containing same” (Zaidan Hojin Biseibutsu Kagaku Kenkyu Kai, priority 1982, dated 1984).
≈ marks a conversion by molar mass, not a printed value.

How the values were obtained:
Pseudomonas aeruginosa = conditions: in words; earlier filings; cited from earlier work
[1] = test system: Escherichia coli K-12 R388; test: Antibacterial MIC, standard serial dilution; format: cell-based; conditions: nutrient agar, 37° C., 17 hours, as free base
Salmonella typhi T-63 = test: Antibacterial MIC, standard serial dilution; format: cell-based; conditions: nutrient agar, 37° C., 17 hours, as free base
[2] = test system: Escherichia coli K-12 ML1410; test: Antibacterial MIC, standard serial dilution; format: cell-based; conditions: nutrient agar, 37° C., 17 hours, as free base
[3] = test system: Pseudomonas aeruginosa TI-13; test: Antibacterial MIC, standard serial dilution; format: cell-based; conditions: nutrient agar, 37° C., 17 hours, as free base
[4] = test system: Shigella dysenteriae JS11910; test: Antibacterial MIC, standard serial dilution; format: cell-based; conditions: nutrient agar, 37° C., 17 hours, as free base
Serratia sp. SOU = test: Antibacterial MIC, standard serial dilution; format: cell-based; conditions: nutrient agar, 37° C., 17 hours, as free base
Escherichia coli JR225 = test: Antibacterial MIC, standard serial dilution; format: cell-based; conditions: nutrient agar, 37° C., 17 hours, as free base
[5] = test system: Pseudomonas aeruginosa 99; test: Antibacterial MIC, standard serial dilution; format: cell-based; conditions: nutrient agar, 37° C., 17 hours, as free base
[6] = test system: Pseudomonas aeruginosa PST1; test: Antibacterial MIC, standard serial dilution; format: cell-based; conditions: nutrient agar, 37° C., 17 hours, as free base
[7] = test system: Klebsiella pneumoniae 22#3038; test: Antibacterial MIC, standard serial dilution; format: cell-based; conditions: nutrient agar, 37° C., 17 hours, as free base
Serratia marcescens = test: Antibacterial MIC, standard serial dilution; format: cell-based; conditions: nutrient agar, 37° C., 17 hours, as free base
[8] = test system: Corynebacterium bovis 1810; test: Antibacterial MIC, standard serial dilution; format: cell-based; conditions: nutrient agar, 37° C., 17 hours, as free base
Proteus vulgaris 0X19 = test: Antibacterial MIC, standard serial dilution; format: cell-based; conditions: nutrient agar, 37° C., 17 hours, as free base
Providencia sp. Pv16 = test: Antibacterial MIC, standard serial dilution; format: cell-based; conditions: nutrient agar, 37° C., 17 hours, as free base
[9] = test system: Escherichia coli K-12 J5R11-2; test: Antibacterial MIC, standard serial dilution; format: cell-based; conditions: nutrient agar, 37° C., 17 hours, as free base
[10] = test system: Bacillus cereus ATCC 10702; test: Antibacterial MIC, standard serial dilution; format: cell-based; conditions: nutrient agar, 37° C., 17 hours, as free base
Escherichia coli K-12 = test: Antibacterial MIC, standard serial dilution; format: cell-based; conditions: nutrient agar, 37° C., 17 hours, as free base
[11] = test system: Staphylococcus aureus Smith; test: Antibacterial MIC, standard serial dilution; format: cell-based; conditions: nutrient agar, 37° C., 17 hours, as free base
[12] = test system: Staphylococcus epidermidis 109; test: Antibacterial MIC, standard serial dilution; format: cell-based; conditions: nutrient agar, 37° C., 17 hours, as free base
[13] = test system: Staphylococcus aureus FDA 209P; test: Antibacterial MIC, standard serial dilution; format: cell-based; conditions: nutrient agar, 37° C., 17 hours, as free base
Bacillus anthracis = format: cell-based; conditions: nutrient agar, 37° C., 17 hours, as free base
[14] = test system: Pseudomonas aeruginosa GN315; test: Antibacterial MIC, standard serial dilution; format: cell-based; conditions: nutrient agar, 37° C., 17 hours, as free base
[15] = test system: Bacillus subtilis PCI 219; test: Antibacterial MIC, standard serial dilution; format: cell-based; conditions: nutrient agar, 37° C., 17 hours, as free base
[16] = test system: Klebsiella pneumoniae PCI602; test: Antibacterial MIC, standard serial dilution; format: cell-based; conditions: nutrient agar, 37° C., 17 hours, as free base
[17] = test system: Escherichia coli K-12 ML1410 R81; test: Antibacterial MIC, standard serial dilution; format: cell-based; conditions: nutrient agar, 37° C., 17 hours, as free base
[18] = test system: Pseudomonas aeruginosa A3; test: Antibacterial MIC, standard serial dilution; format: cell-based; conditions: nutrient agar, 37° C., 17 hours, as free base
[19] = test system: Escherichia coli JR66/W677; test: Antibacterial MIC, standard serial dilution; format: cell-based; conditions: nutrient agar, 37° C., 17 hours, as free base
[20] = test system: Escherichia coli K-12 C600 R135; test: Antibacterial MIC, standard serial dilution; format: cell-based; conditions: nutrient agar, 37° C., 17 hours, as free base
mice = test: Acute toxicity, intravenous administration in mice; format: in vivo
[21] = test system: Staphylococcus aureus Ap01; test: Antibacterial MIC, standard serial dilution; format: cell-based; conditions: nutrient agar, 37° C., 17 hours, as free base
[22] = test system: Escherichia coli K-12 ML1629; test: Antibacterial MIC, standard serial dilution; format: cell-based; conditions: nutrient agar, 37° C., 17 hours, as free base
Serratia sp. 4 = test: Antibacterial MIC, standard serial dilution; format: cell-based; conditions: nutrient agar, 37° C., 17 hours, as free base
[23] = test system: Pseudomonas aeruginosa H11; test: Antibacterial MIC, standard serial dilution; format: cell-based; conditions: nutrient agar, 37° C., 17 hours, as free base
Proteus rettgeri GN466 = test: Antibacterial MIC, standard serial dilution; format: cell-based; conditions: nutrient agar, 37° C., 17 hours, as free base
Sarcina lutea PCI 1001 = test: Antibacterial MIC, standard serial dilution; format: cell-based; conditions: nutrient agar, 37° C., 17 hours, as free base
Escherichia coli W677 = test: Antibacterial MIC, standard serial dilution; format: cell-based; conditions: nutrient agar, 37° C., 17 hours, as free base
Escherichia coli NIHJ = test: Antibacterial MIC, standard serial dilution; format: cell-based; conditions: nutrient agar, 37° C., 17 hours, as free base
[24] = test system: Pseudomonas maltophilia GN 907; test: Antibacterial MIC, standard serial dilution; format: cell-based; conditions: nutrient agar, 37° C., 17 hours, as free base
[25] = test system: Pseudomonas aeruginosa H9; test: Antibacterial MIC, standard serial dilution; format: cell-based; conditions: nutrient agar, 37° C., 17 hours, as free base
[26] = test system: Micrococcus flavus FDA 16; test: Antibacterial MIC, standard serial dilution; format: cell-based; conditions: nutrient agar, 37° C., 17 hours, as free base
Providencia sp. 2991 = test: Antibacterial MIC, standard serial dilution; format: cell-based; conditions: nutrient agar, 37° C., 17 hours, as free base
[27] = test system: Pseudomonas aeruginosa 21-75; test: Antibacterial MIC, standard serial dilution; format: cell-based; conditions: nutrient agar, 37° C., 17 hours, as free base
[28] = test system: Escherichia coli K-12 LA290 R64; test: Antibacterial MIC, standard serial dilution; format: cell-based; conditions: nutrient agar, 37° C., 17 hours, as free base
Proteus rettgeri GN311 = test: Antibacterial MIC, standard serial dilution; format: cell-based; conditions: nutrient agar, 37° C., 17 hours, as free base
[29] = test system: Bacillus subtilis NRRL B-558; test: Antibacterial MIC, standard serial dilution; format: cell-based; conditions: nutrient agar, 37° C., 17 hours, as free base
[30] = test system: Escherichia coli K-12 LA290 R56; test: Antibacterial MIC, standard serial dilution; format: cell-based; conditions: nutrient agar, 37° C., 17 hours, as free base
[31] = test system: Salmonella enteritidis 1891; test: Antibacterial MIC, standard serial dilution; format: cell-based; conditions: nutrient agar, 37° C., 17 hours, as free base
[32] = test system: Pseudomonas aeruginosa ROS 134/PU21; test: Antibacterial MIC, standard serial dilution; format: cell-based; conditions: nutrient agar, 37° C., 17 hours, as free base
[33] = test system: Pseudomonas aeruginosa B-13; test: Antibacterial MIC, standard serial dilution; format: cell-based; conditions: nutrient agar, 37° C., 17 hours, as free base
[34] = test system: gram-negative and gram-positive bacteria; test: Antibacterial activity overall (Table 1 spectrum); format: cell-based; conditions: in words
[35] = test system: Pseudomonas aeruginosa K-Ps 102; test: Antibacterial MIC, standard serial dilution; format: cell-based; conditions: nutrient agar, 37° C., 17 hours, as free base
[36] = test system: Pseudomonas aeruginosa No. 12; test: Antibacterial MIC, standard serial dilution; format: cell-based; conditions: nutrient agar, 37° C., 17 hours, as free base
[37] = test system: Mycobacterium smegmatis ATCC 607; test: Antibacterial MIC, standard serial dilution; format: cell-based; conditions: nutrient agar, 37° C., 17 hours, as free base

CN(C(=O)CN)C1C(O)CC(N)C(OC2OC(CN)CCC2N)C1O (stereo not shown) [di-N^6',O^3 -demethylistamycinA]
antibacterial activity against Pseudomonas aeruginosa (Pseudomonas aeruginosa): significantly higher than the parent istamycin A

CNCC1CCC(N)C(OC2C(N)CCC(N(C)C(=O)CN)C2O)O1 (stereo not shown) [DB, 3-demethoxyistamycin B]
MIC [1]: 0.39 µg/mL (≈ 1.08 µM)
MIC (Salmonella typhi T-63): < 0.20 µg/mL
MIC [2]: 1.56 µg/mL (≈ 4.34 µM)
MIC [3]: 6.25 µg/mL (≈ 17.4 µM)
MIC [4]: 1.56 µg/mL (≈ 4.34 µM)
MIC (Serratia sp. SOU): 3.13 µg/mL (≈ 8.71 µM)
MIC (Escherichia coli JR225): 0.78 µg/mL (≈ 2.17 µM)
MIC [5]: 25 µg/mL (≈ 69.5 µM)
MIC [6]: 12.5 µg/mL (≈ 34.8 µM)
MIC [7]: 1.56 µg/mL (≈ 4.34 µM)
MIC (Serratia marcescens): 0.78 µg/mL (≈ 2.17 µM)
MIC [8]: < 0.20 µg/mL
MIC (Proteus vulgaris 0X19): 0.39 µg/mL (≈ 1.08 µM)
MIC (Providencia sp. Pv16): 0.78 µg/mL (≈ 2.17 µM)
MIC [9]: 0.78 µg/mL (≈ 2.17 µM)
MIC [10]: 1.56 µg/mL (≈ 4.34 µM)
MIC (Escherichia coli K-12): 0.78 µg/mL (≈ 2.17 µM)
MIC [11]: 0.20 µg/mL (≈ 0.556 µM)
MIC [12]: < 0.20 µg/mL
MIC [13]: < 0.20 µg/mL
MIC (Bacillus anthracis): 0.39 µg/mL (≈ 1.08 µM)
MIC [14]: 6.25 µg/mL (≈ 17.4 µM)
MIC [15]: < 0.20 µg/mL
MIC [16]: 0.78 µg/mL (≈ 2.17 µM)
MIC [17]: 0.78 µg/mL (≈ 2.17 µM)
MIC [18]: 0.39 µg/mL (≈ 1.08 µM)
MIC [19]: 0.78 µg/mL (≈ 2.17 µM)
MIC [20]: 0.78 µg/mL (≈ 2.17 µM)
acute toxicity (mice; mice, intravenous, in words): low toxicity
tolerated dose (all treated mice) (mice; mouse, in vivo, iv, 336 h): 100 mg/kg
MIC [21]: 0.39 µg/mL (≈ 1.08 µM)
MIC [22]: 0.78 µg/mL (≈ 2.17 µM)
MIC (Serratia sp. 4): 12.5 µg/mL (≈ 34.8 µM)
MIC [23]: 25.0 µg/mL (≈ 69.5 µM)
MIC (Proteus rettgeri GN466): 0.39 µg/mL (≈ 1.08 µM)
MIC (Sarcina lutea PCI 1001): < 0.20 µg/mL
MIC (Escherichia coli W677): 0.39 µg/mL (≈ 1.08 µM)
MIC (Escherichia coli NIHJ): 0.39 µg/mL (≈ 1.08 µM)
MIC [24]: 100 µg/mL (≈ 278 µM)
MIC [25]: 12.5 µg/mL (≈ 34.8 µM)
MIC [26]: 3.13 µg/mL (≈ 8.71 µM)
MIC (Providencia sp. 2991): 1.56 µg/mL (≈ 4.34 µM)
MIC [27]: 50 µg/mL (≈ 139 µM)
MIC [28]: 0.78 µg/mL (≈ 2.17 µM)
MIC (Proteus rettgeri GN311): 0.39 µg/mL (≈ 1.08 µM)
MIC [29]: < 0.20 µg/mL
MIC [30]: 0.39 µg/mL (≈ 1.08 µM)
MIC [31]: 1.56 µg/mL (≈ 4.34 µM)
MIC [32]: 50 µg/mL (≈ 139 µM)
MIC [33]: 50 µg/mL (≈ 139 µM)
antibacterial activity [34]: the most active compound
MIC [35]: 12.5 µg/mL (≈ 34.8 µM)
MIC [36]: 12.5 µg/mL (≈ 34.8 µM)
MIC [37]: 0.39 µg/mL (≈ 1.08 µM)
